Assays:
[1] = molecular target: Prostaglandin G/H synthase 1 (Homo sapiens) (UniProt P23219); assay: Inhibitor of COX-1 in the Eurofins Cerep SafetyScreen44 (BI) by Fluorimetry (Cerep_4173); conditions: Compound concentration 10.0 uM
[2] = molecular target: Cannabinoid receptor 2 (Homo sapiens) (UniProt P34972); assay: Activity against CB2/PERIPH/H in the Eurofins Cerep SafetyScreen44 (BI) by Radioactive Assay (Cerep_37); conditions: Compound concentration 10.0 uM
[3] = molecular target: Neuropeptide Y receptor type 5 (Homo sapiens, UniProt Q15761); assay: Radioligand binding assay (human NPY5R, HEK293); assay type: cell-based
[4] = molecular target: Alpha-2A adrenergic receptor (Oryctolagus cuniculus) (UniProt Q5ZQK3); assay: Activity against ALPHA2A/RB in the Eurofins Panlabs screen (BI) by Radioactive Assay; conditions: Compound concentration 10.0 uM
[5] = molecular target: Tyrosine-protein kinase Fyn (Homo sapiens) (UniProt P06241); assay: Inhibitor of P59TYRKINFYN in the Eurofins Panlabs screen (BI) by FI - fluorescence intensity; conditions: Compound concentration 10.0 uM
[6] = molecular target: Tyrosine-protein kinase Lck (Homo sapiens) (UniProt P06239); assay: Inhibitor of LCK_CE in the Eurofins Cerep SafetyScreen44 (BI) by lanthanide chelation excitation (Cerep_2906); conditions: Compound concentration 10.0 uM
[7] = molecular target: Muscarinic acetylcholine receptor M3 (Homo sapiens) (UniProt P20309); assay: M3 Eurofins-Cerep binding assay; parameters: ligand concentration 0.2 nM; conditions: Compound concentration 10.0 uM
[8] = molecular target: Voltage-dependent N-type calcium channel subunit alpha-1B (Rattus norvegicus) (UniProt Q02294); assay: Activity against CA+/N/RA in the Eurofins Panlabs screen (BI) by Radioactive Assay; conditions: Compound concentration 10.0 uM
[9] = molecular target: Muscarinic acetylcholine receptor M1 (Rattus norvegicus) (UniProt P08482); assay: Activity against M1/R in the Eurofins Panlabs screen (BI) by Radioactive Assay; conditions: Compound concentration 10.0 uM
[10] = molecular target: Glutamate receptor 1 (Rattus norvegicus) (UniProt P19490); assay: Activity against AMPA/RA in the Eurofins Panlabs screen (BI); conditions: Compound concentration 10.0 uM
[11] = molecular target: Beta-1 adrenergic receptor (Homo sapiens) (UniProt P08588); assay: beta 1 Eurofins-Cerep binding assay; parameters: ligand concentration 0.3 nM; conditions: Compound concentration 10.0 uM
[12] = molecular target: Gamma-aminobutyric acid receptor subunit alpha-1 (Rattus norvegicus) (UniProt P62813); assay: Activity against GABAACL+ in the Eurofins Panlabs screen (BI) by Radioactive Assay; conditions: Compound concentration 10.0 uM
[13] = molecular target: Vasoactive intestinal peptide receptor 1 (Cavia porcellus) (UniProt A0A286XMQ0); assay: Activity against VIP1/GP in the Eurofins Panlabs screen (BI) by Radioactive Assay; conditions: Compound concentration 10.0 uM
[14] = molecular target: Galanin receptor type 1 (Rattus norvegicus) (UniProt Q62805); assay: Activity against GALANIN/R in the Eurofins Panlabs screen (BI) by Radioactive Assay; conditions: Compound concentration 10.0 uM
[15] = molecular target: Insulin receptor (Rattus norvegicus) (UniProt P15127); assay: Activity against INSULIN/R in the Eurofins Panlabs screen (BI) by Radioactive Assay; conditions: Compound concentration 10.0 uM
[16] = molecular target: Gamma-aminobutyric acid receptor subunit alpha-1 (Rattus norvegicus) (UniProt P62813); assay: Agonist activity in the Eurofins Panlabs screen (BI) against GABAA-AGSI/R by Scintillation counting; conditions: Compound concentration 10.0 uM
[17] = molecular target: Opioid receptor (Rattus norvegicus) (UniProt P33533+P34975+P33535); assay: Activity against OPIAT/NS in the Eurofins Panlabs screen (BI) by Radioactive Assay; assay type: protein assay; conditions: Compound concentration 10.0 uM
[18] = molecular target: T1, Neuropeptide Y receptor type 2 (Homo sapiens, UniProt P49146); assay: Radioligand binding assay (NPY2R, SMS-KAN cells); assay type: cell-based
T1 sequence (P49146 whole entry): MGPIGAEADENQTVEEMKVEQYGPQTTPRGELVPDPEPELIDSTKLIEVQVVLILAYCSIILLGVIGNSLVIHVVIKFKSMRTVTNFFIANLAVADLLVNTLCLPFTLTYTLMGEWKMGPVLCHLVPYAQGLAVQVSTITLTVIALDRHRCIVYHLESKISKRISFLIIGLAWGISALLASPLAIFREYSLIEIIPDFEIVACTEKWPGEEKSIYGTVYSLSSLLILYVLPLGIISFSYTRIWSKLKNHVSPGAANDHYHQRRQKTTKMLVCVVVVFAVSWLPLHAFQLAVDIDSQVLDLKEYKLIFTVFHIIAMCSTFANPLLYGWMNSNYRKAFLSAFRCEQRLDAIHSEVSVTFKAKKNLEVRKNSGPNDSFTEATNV

[19] = molecular target: L-type calcium channel (dihydropyridine site), Cav1.2 alpha-1C (Rattus norvegicus, UniProt P22002); assay: Activity against CA+/DHPSI/RA in the Eurofins Panlabs screen (BI) by Radioactive Assay; conditions: compound concentration 10 uM, read-out: % Ctrl
[20] = molecular target: Alpha-1A adrenergic receptor (Homo sapiens) (UniProt P35348); assay: Activity against ALPHA1A/R in the Eurofins Panlabs screen (BI) by Others; conditions: Rattus norvegicus; Compound concentration 10.0 uM
[21] = molecular target: Potassium voltage-gated channel subfamily A member 1 (Rattus norvegicus) (UniProt P10499); assay: Activity against K+/KA/R in the Eurofins Panlabs screen (BI) by Radioactive Assay; conditions: Compound concentration 10.0 uM
[22] = molecular target: Serotonin 2 (5-HT2) receptor (Rattus norvegicus) (UniProt P30994+P08909+P14842); assay: Activity against 5HT2/R in the Eurofins Panlabs screen (BI) by Radioactive Assay; assay type: protein assay; conditions: Compound concentration 10.0 uM
[23] = molecular target: Protein kinase C beta type (Homo sapiens) (UniProt P05771); assay: Inhibitor of PKCBETA in the Eurofins Panlabs screen (BI) by Radioactive Assay; conditions: Compound concentration 10.0 uM
[24] = molecular target: Neutrophil elastase (Homo sapiens) (UniProt P08246); assay: Activity against ELASTASEPMN in the Eurofins Panlabs screen (BI) by absorption of electromagnetic radiation; conditions: Compound concentration 30.0 uM
[25] = molecular target: Polyunsaturated fatty acid 5-lipoxygenase (Homo sapiens) (UniProt P09917); assay: Activity against 5LO in the Eurofins Panlabs screen (BI) by Radioactive Assay; conditions: Compound concentration 30.0 uM
[26] = molecular target: Tumor necrosis factor (Homo sapiens) (UniProt P01375); assay: Activity against TNFA/HU/HELA in the Eurofins Panlabs screen (BI) by Radioactive Assay; conditions: Compound concentration 10.0 uM
[27] = molecular target: Prostaglandin G/H synthase 2 (Homo sapiens) (UniProt P35354); assay: Inhibitor of COX-2 in the Eurofins Cerep SafetyScreen44 (BI) by Fluorimetry (Cerep_4186); conditions: Compound concentration 10.0 uM
[28] = molecular target: Adenosine receptor A2a (Rattus norvegicus) (UniProt P30543); assay: Activity against A2A/R in the Eurofins Panlabs screen (BI) by Radioactive Assay; conditions: Compound concentration 10.0 uM
[29] = molecular target: Androgen receptor (Rattus norvegicus) (UniProt P15207); assay: Activity against TESTOST/R in the Eurofins Panlabs screen (BI) by Radioactive Assay; conditions: Compound concentration 10.0 uM
[30] = molecular target: LTB4 receptor (Cavia porcellus) (UniProt Q9WTK1); assay: Activity against LTB4GP in the Eurofins Panlabs screen (BI) by Radioactive Assay; conditions: Compound concentration 10.0 uM
hERG (KCNH2) = hERG (KCNH2) (Homo sapiens, UniProt Q12809); assay: Inhibitor of HERG_DOFETILIDE in the Eurofins Cerep SafetyScreen44 (BI) by Scintillation counting (Cerep_4094); parameters: scale not given: the % may be the effect or the level left; conditions: probe [3H] dofetilide, compound concentration 10 uM, read-out: % Ctrl
[31] = molecular target: Substance-P receptor (Cavia porcellus) (UniProt P30547); assay: Activity against NK1/GP in the Eurofins Panlabs screen (BI) by Radioactive Assay; conditions: Compound concentration 10.0 uM
[32] = molecular target: Gamma-aminobutyric acid receptor subunit alpha-1 (Rattus norvegicus) (UniProt P62813); assay: Activity against GABAACENTR in the Eurofins Panlabs screen (BI) by Radioactive Assay; conditions: Compound concentration 10.0 uM

Chain of Gamma-aminobutyric acid receptor subunit alpha-1 (Rattus norvegicus) (P62813 whole entry): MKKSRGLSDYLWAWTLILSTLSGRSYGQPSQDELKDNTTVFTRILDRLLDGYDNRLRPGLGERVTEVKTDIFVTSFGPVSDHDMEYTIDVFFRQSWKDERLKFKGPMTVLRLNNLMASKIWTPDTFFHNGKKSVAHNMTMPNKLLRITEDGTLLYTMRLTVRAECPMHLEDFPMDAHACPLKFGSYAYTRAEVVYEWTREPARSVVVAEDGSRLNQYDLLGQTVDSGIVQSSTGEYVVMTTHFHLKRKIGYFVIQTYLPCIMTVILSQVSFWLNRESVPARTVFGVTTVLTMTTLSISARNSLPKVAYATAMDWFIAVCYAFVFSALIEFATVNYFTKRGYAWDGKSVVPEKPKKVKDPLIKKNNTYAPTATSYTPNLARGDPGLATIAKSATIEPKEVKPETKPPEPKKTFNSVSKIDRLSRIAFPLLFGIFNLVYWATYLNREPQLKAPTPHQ
Chain of Serotonin 2 (5-HT2) receptor (Rattus norvegicus) (P08909 whole entry, looked up): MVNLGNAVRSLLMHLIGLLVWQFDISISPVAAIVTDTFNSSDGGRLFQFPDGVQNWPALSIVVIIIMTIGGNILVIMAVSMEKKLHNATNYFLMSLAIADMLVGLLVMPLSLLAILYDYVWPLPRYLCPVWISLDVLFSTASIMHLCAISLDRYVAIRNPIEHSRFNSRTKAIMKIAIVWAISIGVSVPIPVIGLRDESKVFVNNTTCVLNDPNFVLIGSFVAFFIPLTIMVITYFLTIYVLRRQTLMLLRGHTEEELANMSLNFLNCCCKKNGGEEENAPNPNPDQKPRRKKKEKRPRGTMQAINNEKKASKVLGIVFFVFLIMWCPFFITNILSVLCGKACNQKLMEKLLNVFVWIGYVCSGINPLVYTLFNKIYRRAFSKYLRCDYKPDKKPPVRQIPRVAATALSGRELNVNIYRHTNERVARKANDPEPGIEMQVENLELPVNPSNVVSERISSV
Chain of Serotonin 2 (5-HT2) receptor (Rattus norvegicus) (P14842 whole entry, looked up): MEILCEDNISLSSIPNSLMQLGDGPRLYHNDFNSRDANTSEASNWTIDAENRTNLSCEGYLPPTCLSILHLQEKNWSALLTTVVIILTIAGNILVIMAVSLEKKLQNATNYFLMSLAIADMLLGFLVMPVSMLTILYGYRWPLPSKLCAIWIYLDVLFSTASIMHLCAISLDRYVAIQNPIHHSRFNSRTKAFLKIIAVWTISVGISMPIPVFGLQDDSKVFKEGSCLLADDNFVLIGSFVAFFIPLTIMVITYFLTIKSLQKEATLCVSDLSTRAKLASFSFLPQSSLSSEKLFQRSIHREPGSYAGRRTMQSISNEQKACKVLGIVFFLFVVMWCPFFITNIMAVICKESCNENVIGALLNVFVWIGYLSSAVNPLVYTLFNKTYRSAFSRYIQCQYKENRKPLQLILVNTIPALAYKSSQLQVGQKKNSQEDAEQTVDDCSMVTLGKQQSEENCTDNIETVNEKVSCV
Chain of Serotonin 2 (5-HT2) receptor (Rattus norvegicus) (P30994 whole entry, looked up): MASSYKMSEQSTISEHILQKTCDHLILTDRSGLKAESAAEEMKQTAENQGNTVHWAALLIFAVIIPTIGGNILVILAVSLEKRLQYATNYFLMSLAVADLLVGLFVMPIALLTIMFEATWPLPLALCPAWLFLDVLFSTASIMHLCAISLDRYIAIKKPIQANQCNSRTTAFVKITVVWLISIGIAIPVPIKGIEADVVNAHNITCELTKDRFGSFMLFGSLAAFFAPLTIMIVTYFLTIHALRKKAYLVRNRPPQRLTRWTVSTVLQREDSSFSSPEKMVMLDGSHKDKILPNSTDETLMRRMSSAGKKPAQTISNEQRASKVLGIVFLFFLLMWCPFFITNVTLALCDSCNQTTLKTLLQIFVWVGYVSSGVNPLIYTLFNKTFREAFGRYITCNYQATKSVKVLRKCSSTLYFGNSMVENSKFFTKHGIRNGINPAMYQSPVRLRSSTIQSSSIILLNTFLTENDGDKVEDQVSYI
Chain of LTB4 receptor (Cavia porcellus) (Q9WTK1 as listed by the source): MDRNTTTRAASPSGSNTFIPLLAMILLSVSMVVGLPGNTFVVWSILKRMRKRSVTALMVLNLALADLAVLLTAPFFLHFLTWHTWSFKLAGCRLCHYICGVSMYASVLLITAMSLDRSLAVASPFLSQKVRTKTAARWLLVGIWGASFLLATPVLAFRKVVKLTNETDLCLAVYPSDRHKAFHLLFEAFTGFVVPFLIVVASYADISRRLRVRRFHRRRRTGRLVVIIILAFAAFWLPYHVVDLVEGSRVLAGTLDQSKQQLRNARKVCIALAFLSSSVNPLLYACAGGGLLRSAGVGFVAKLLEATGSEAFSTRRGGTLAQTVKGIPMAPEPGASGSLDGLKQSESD
Chain of Muscarinic acetylcholine receptor M1 (Rattus norvegicus) (P08482 whole entry): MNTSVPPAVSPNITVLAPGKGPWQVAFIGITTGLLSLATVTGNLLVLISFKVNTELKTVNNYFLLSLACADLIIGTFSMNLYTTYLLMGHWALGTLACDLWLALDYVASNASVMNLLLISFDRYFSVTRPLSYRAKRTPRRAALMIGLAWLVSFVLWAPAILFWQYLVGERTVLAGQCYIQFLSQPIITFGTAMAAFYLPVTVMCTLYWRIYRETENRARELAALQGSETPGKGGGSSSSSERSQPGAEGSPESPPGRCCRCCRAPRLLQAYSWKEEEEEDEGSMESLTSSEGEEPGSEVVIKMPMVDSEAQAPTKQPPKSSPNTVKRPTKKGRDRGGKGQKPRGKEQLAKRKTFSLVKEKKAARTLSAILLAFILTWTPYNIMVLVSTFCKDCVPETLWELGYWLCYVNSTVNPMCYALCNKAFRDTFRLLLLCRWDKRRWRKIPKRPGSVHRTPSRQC
Chain of Galanin receptor type 1 (Rattus norvegicus) (Q62805 whole entry): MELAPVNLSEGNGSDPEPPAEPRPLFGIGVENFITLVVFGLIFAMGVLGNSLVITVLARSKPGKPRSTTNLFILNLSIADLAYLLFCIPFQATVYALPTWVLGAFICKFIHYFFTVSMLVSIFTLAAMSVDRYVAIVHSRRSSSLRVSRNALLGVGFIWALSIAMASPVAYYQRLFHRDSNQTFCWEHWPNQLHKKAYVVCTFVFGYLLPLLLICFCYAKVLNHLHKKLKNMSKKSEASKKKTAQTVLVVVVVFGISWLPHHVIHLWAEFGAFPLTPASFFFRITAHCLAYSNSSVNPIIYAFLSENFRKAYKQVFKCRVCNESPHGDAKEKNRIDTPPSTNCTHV
Chain of Prostaglandin G/H synthase 2 (Homo sapiens) (P35354 whole entry): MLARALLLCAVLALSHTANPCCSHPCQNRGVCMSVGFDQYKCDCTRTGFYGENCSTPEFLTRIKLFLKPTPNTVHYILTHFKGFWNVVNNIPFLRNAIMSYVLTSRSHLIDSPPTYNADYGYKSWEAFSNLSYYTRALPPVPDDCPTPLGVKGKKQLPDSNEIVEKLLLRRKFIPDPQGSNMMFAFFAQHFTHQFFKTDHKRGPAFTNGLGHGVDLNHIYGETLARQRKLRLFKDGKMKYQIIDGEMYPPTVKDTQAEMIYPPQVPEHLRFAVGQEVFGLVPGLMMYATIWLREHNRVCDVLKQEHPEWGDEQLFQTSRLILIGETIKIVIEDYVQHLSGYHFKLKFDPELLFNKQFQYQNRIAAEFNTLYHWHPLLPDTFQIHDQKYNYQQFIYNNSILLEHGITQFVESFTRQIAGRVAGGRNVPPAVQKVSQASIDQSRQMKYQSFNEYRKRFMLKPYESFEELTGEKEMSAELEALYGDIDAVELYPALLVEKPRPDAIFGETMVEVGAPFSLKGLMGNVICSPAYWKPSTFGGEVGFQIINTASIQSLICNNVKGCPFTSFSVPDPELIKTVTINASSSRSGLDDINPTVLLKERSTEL
Chain of Opioid receptor (Rattus norvegicus) (P33533 whole entry, looked up): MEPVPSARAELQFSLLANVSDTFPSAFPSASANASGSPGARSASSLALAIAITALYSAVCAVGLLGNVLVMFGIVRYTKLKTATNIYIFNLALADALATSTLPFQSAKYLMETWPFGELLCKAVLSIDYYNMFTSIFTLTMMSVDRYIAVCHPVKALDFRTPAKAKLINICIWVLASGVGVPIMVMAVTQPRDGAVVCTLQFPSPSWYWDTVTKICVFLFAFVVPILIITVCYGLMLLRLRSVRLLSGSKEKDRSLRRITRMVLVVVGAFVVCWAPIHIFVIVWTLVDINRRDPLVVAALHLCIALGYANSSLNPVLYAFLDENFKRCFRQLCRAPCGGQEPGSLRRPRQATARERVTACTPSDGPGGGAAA
Chain of Opioid receptor (Rattus norvegicus) (P33535 whole entry, looked up): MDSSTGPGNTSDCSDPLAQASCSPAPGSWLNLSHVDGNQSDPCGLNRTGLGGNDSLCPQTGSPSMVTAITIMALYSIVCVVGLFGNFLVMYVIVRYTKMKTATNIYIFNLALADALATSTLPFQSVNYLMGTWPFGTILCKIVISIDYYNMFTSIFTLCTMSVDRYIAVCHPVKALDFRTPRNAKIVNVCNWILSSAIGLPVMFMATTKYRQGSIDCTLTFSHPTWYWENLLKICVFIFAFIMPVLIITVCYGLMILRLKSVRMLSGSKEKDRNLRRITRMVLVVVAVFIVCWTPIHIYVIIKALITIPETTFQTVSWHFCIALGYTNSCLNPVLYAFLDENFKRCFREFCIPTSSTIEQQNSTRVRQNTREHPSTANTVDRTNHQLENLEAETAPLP
Chain of Opioid receptor (Rattus norvegicus) (P34975 whole entry, looked up): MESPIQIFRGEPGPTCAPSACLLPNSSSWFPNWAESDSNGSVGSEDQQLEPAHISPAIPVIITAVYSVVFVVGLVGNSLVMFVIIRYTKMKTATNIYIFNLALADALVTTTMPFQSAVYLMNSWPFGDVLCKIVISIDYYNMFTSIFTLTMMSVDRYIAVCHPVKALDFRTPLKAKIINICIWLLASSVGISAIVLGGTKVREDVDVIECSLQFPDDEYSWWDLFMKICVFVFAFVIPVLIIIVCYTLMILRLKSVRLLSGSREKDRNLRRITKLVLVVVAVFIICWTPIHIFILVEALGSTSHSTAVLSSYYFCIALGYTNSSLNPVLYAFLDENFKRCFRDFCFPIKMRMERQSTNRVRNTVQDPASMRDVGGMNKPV

N=C(N)NCCC[C@@H](NC(=O)C(c1ccccc1)c1ccccc1)C(=O)NCc1ccc(CNC(N)=O)cc1
residual activity [1]: 81% | residual activity [2]: 91% | IC50 [3]: > 10 µM (not active) | residual activity [4]: 82% | residual activity [5]: 84% | residual activity [6]: 86% | residual activity [7]: 87% | residual activity [8]: 110% | residual activity [9]: 73% | residual activity [10]: 96% | residual activity [11]: 106% | residual activity [12]: 84% | residual activity [13]: 88% | residual activity [14]: 91% | residual activity [15]: 98% | residual activity [16]: 104% | residual activity [17]: 114% | IC50 [18]: > 10 µM (not active) | activity at 10 µM [19]: 82% (not active) | residual activity [20]: 98% | residual activity [21]: 99% | residual activity [22]: 92% | residual activity [23]: 89% | residual activity [24]: 94% | residual activity [25]: 97% | residual activity [26]: 114% | residual activity [27]: 61% | residual activity [28]: 97% | residual activity [29]: 88% | residual activity [30]: 86% | activity at 10 µM (hERG (KCNH2)): 79% (not active) | residual activity [31]: 106% | residual activity [32]: 89%

From ChEMBL document CHEMBL5463723, “Data for DCP probe BIBO3304” (2023)
